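Exposure lasted 48 hours, with cells grown in 96-well plates and compounds tested at five concentrations. The concentration for 50% growth inhibition is given as GI50.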 Active and inactive are the calls of the source. Rule as the data show it: active = GI50 up to about 1.1 µM and inactive = higher.
What was measured:
Assay in all cases: DTP human tumour cell line panel, 48 h
[1] = tested on: 786-0
[2] = tested on: ACHN
[3] = tested on: CCRF-CEM
[4] = tested on: HCT-15
[5] = tested on: HT-29
[6] = tested on: Hs-578T
[7] = tested on: IGROV-1
[8] = tested on: KM12
[9] = tested on: MDA-MB-231
[10] = tested on: NCI-H460
[11] = tested on: NCI-H522
[12] = tested on: OVCAR-3
[13] = tested on: OVCAR-4
[14] = tested on: RPMI-8226
[15] = tested on: RXF 393
[16] = tested on: SF-268
[17] = tested on: SF-539
[18] = tested on: SK-OV-3
[19] = tested on: SNB-19
[20] = tested on: UO-31

SMILES | GI50 [1] | GI50 [2] | GI50 [3] | GI50 [4] | GI50 [5] | GI50 [6] | GI50 [7] | GI50 [8] | GI50 [9] | GI50 [10] | GI50 [11] | GI50 [12] | GI50 [13] | GI50 [14] | GI50 [15] | GI50 [16] | GI50 [17] | GI50 [18] | GI50 [19] | GI50 [20]
COC(=O)N/N=C(\C)C(CN1CCOCC1)C(c1ccccc1)c1cc2ccccc2oc1=O (stereo not given) | > 100 µM (inactive) | > 100 µM (inactive) | 44.6 µM (inactive) | > 100 µM | > 100 µM (inactive) | > 100 µM (inactive) | > 100 µM (inactive) | > 100 µM (inactive) | > 100 µM (inactive) | > 100 µM (inactive) | > 100 µM (inactive) | > 100 µM (inactive) | 74.3 µM (inactive) | 25 µM (inactive) | 72.1 µM (inactive) | > 100 µM (inactive) | > 100 µM (inactive) | > 100 µM (inactive) | > 100 µM (inactive) | > 100 µM (inactive)
COc1ccccc1C(=O)N(Cc1ccccc1)c1ccc(Cl)c(C(=O)OC(C)C)c1 | 25.9 µM (inactive) | 25 µM (inactive) | 35.5 µM (inactive) | 19.8 µM | 16.6 µM (inactive) | 61.1 µM (inactive) | 25.8 µM (inactive) | 21.2 µM (inactive) | 25.9 µM (inactive) | 21.4 µM (inactive) | 5.93 µM (inactive) | 17.7 µM (inactive) | 15.6 µM (inactive) | 5.69 µM (inactive) | 11.8 µM (inactive) | 42.3 µM (inactive) | 30.6 µM (inactive) | 25.4 µM (inactive) | 24.3 µM (inactive) | 7.71 µM (inactive)
COC1=C(N=[N+]=[N-])C(=O)c2ncccc2C1=O | 8.79 µM (inactive) | 4.28 µM (inactive) | 0.401 µM (active) | 7.83 µM | 18.4 µM (inactive) | 18.5 µM (inactive) | 5.38 µM (inactive) | 15.6 µM (inactive) | 12.4 µM (inactive) | 15.7 µM (inactive) | 1.9 µM (inactive) | 5.57 µM (inactive) | 2.69 µM (inactive) | 1.88 µM (inactive) | 3.75 µM (inactive) | 14.5 µM (inactive) | 16 µM (inactive) | 15.2 µM (inactive) | 17.1 µM (inactive) | 14.4 µM (inactive)
O=C1C(Nc2ccc(S(=O)(=O)Nc3cnc4ccccc4n3)cc2)=C/C(=N\c2ccc(S(=O)(=O)Nc3cnc4ccccc4n3)cc2)c2ccccc21 | 17.2 µM (inactive) | 30.7 µM (inactive) | 24 µM (inactive) | 18.4 µM | 20.4 µM (inactive) | 37.2 µM (inactive) | 19.1 µM (inactive) | 16.9 µM (inactive) | 23.1 µM (inactive) | 16.7 µM (inactive) | 16.8 µM (inactive) | 19.8 µM (inactive) | 20.8 µM (inactive) | 27.9 µM (inactive) | 17.7 µM (inactive) | 20 µM (inactive) | 18.9 µM (inactive) | 17.2 µM (inactive) | 15.3 µM (inactive) | 15.6 µM (inactive)
COC(=O)/C=C(/C(=O)OC)c1c(C)cc2c(C)cc(C)cc(C)c1-2 | 15.2 µM (inactive) | 20.4 µM (inactive) | 9.18 µM (inactive) | 4.56 µM | 7.41 µM (inactive) | 11 µM (inactive) | 23.3 µM (inactive) | 5.11 µM (inactive) | 4.89 µM (inactive) | 19.9 µM (inactive) | 7.48 µM (inactive) | 10.2 µM (inactive) | 22.3 µM (inactive) | 9.79 µM (inactive) | 18.8 µM (inactive) | 19.1 µM (inactive) | 9.12 µM (inactive) | 21.5 µM (inactive) | 9.89 µM (inactive) | 23 µM (inactive)
CC(=O)OCC1(C)C(O)CCC2(C)C1CCC1CC3CC12CCC3(O)CO (stereo not given) | 44.4 µM (inactive) | 4.46 µM (inactive) | 9.77 µM (inactive) | > 100 µM | 34.3 µM (inactive) | > 53.6 µM (inactive) | > 47 µM (inactive) | > 100 µM (inactive) | > 100 µM (inactive) | 6.75 µM (inactive) | > 26.6 µM (inactive) | > 100 µM (inactive) | > 87.5 µM (inactive) | 47.5 µM (inactive) | > 100 µM (inactive) | > 80.2 µM (inactive) | 50.6 µM (inactive) | > 100 µM (inactive) | > 100 µM (inactive) | 25 µM (inactive)
CCOC(=O)C(C(=O)c1ccccc1C(=O)OC)=P(c1ccccc1)(c1ccccc1)c1ccccc1 | > 10 µM (inactive) | > 10 µM (inactive) | > 10 µM (inactive) | > 10 µM | > 10 µM (inactive) | > 10 µM (inactive) | > 10 µM (inactive) | > 10 µM (inactive) | > 10 µM (inactive) | > 10 µM (inactive) | > 10 µM (inactive) | > 10 µM (inactive) | > 10 µM (inactive) | > 10 µM (inactive) | > 10 µM (inactive) | > 10 µM (inactive) | > 10 µM (inactive) | > 10 µM (inactive) | > 10 µM (inactive) | > 10 µM (inactive)
Cc1cc(C)c2c(O)cc(-c3cccc(Cl)c3)nc2n1 | 0.261 µM (active) | 2.12 µM (inactive) | 0.229 µM (active) | 0.101 µM | 0.122 µM (active) | 0.252 µM (active) | 0.2 µM (active) | 0.0933 µM (active) | 0.256 µM (active) | 0.0968 µM (active) | 0.0356 µM (active) | 0.106 µM (active) | 77.3 µM (inactive) | 0.148 µM (active) | 0.179 µM (active) | 1.05 µM (active) | 0.119 µM (active) | 0.293 µM (active) | 0.349 µM (active) | 3.34 µM (inactive)
COC(=O)c1cccc(COc2ccc([N+](=O)[O-])cc2Cl)c1 | > 100 µM (inactive) | 53.3 µM (inactive) | 63.4 µM (inactive) | 70.5 µM | > 100 µM (inactive) | 60.1 µM (inactive) | > 100 µM (inactive) | > 100 µM (inactive) | 82.8 µM (inactive) | > 100 µM (inactive) | 63.7 µM (inactive) | 63.4 µM (inactive) | 58.3 µM (inactive) | 89.7 µM (inactive) | > 100 µM (inactive) | > 100 µM (inactive) | > 100 µM (inactive) | > 100 µM (inactive) | > 100 µM (inactive) | 98.9 µM (inactive)
O=CC(NC(=O)N(CCCl)N=O)C(O)C(O)C(O)CO (stereo not given) | 56.6 µM (inactive) | 346 µM (inactive) | 348 µM (inactive) | 1190 µM | > 1250 µM (inactive) | > 955 µM (inactive) | 1000 µM (inactive) | > 1250 µM (inactive) | > 1100 µM (inactive) | 272 µM (inactive) | 1160 µM (inactive) | > 1250 µM (inactive) | > 449 µM (inactive) | 851 µM (inactive) | 1150 µM (inactive) | 114 µM (inactive) | 119 µM (inactive) | > 1160 µM (inactive) | 312 µM (inactive) | > 1200 µM (inactive)

Source: ChEMBL document CHEMBL1201862, “PubChem BioAssay data set” (2004)
